Here are results for 33 compounds from patent US20250382273A1 (INSTITUT NATIONAL DE LA SANTE ET DE LA RECHERCHE MEDICALE, priority 2022, published 2025).

Broadly, the EC50 is the concentration at which the effect is half-maximal.

For the first test, the system named is M. tuberculosis H37Rv_gfp. In kind it is cell-based, Mycobacterium tuberculosis. Particulars: in combination with pretomanid 20 ng·mL−1; 5 days at 37° C.; […]; read-out: EC50 H37Rv_gfp.
On to `COC(=O)c1ccc2nc(NC(=O)[C@@H]3C4C=CC(C4)[C@@H]3C(=O)O)sc2c1` (some centres unmarked) [Example 41, 3-[(6-methoxycarbonyl-1,3-benzothiazol-2-yl)carbamoyl]bicyclo[2.2.1]hept-5-ene-2-carboxylic acid], for which the EC50 lay in the range of 1 to 5 µM.

For `O=C(Nc1nc2ccc(F)cc2s1)[C@@H]1C2C=CC(C2)[C@@H]1C(=O)O` (some centres unmarked) [Example 42, 3-[(6-fluoro-1,3-benzothiazol-2-yl)carbamoyl]bicyclo[2.2.1]hept-5-ene-2-carboxylic acid], the EC50 lay in the range of 1 to 5 µM.

Regarding `O=C(Nc1nc2ccc(C(F)(F)F)cc2s1)[C@@H]1C2C=CC(C2)[C@@H]1C(=O)O` (some centres unmarked) [Example 43, 3-[[6-(trifluoromethyl)-1,3-benzothiazol-2-yl]carbamoyl]bicyclo[2.2.1]hept-5-ene-2-carboxylic acid], the EC50 is below 1 µM.

Consider `O=C(Nc1nc2ccc(OC(F)(F)F)cc2s1)[C@@H]1C2C=CC(C2)[C@@H]1C(=O)O` (some centres unmarked) [Example 44, 3-[[6-(trifluoromethoxy)-1,3-benzothiazol-2-yl]carbamoyl]bicyclo[2.2.1]hept-5-ene-2-carboxylic acid], for which the EC50 is below 1 µM.

`O=C1[C@@H]2[C@H](C(=O)N1c1nc3ccc(OC(F)(F)F)cc3s1)[C@@H]1C=C[C@H]2C1` [Example 45, (1R,2S,6R,7S)-4-[6-(trifluoromethoxy)-1,3-benzothiazol-2-yl]-4-azatricyclo[5.2.1.02,6]dec-8-ene-3,5-dione]: the EC50 was 1 to 5 µM.

On to `O=C(Nc1nc2ccc(Cl)cc2s1)[C@@H]1C2C=CC(C2)[C@@H]1C(=O)O` (some centres unmarked) [Example 46, 3-[(6-chloro-1,3-benzothiazol-2-yl)carbamoyl]bicyclo[2.2.1]hept-5-ene-2-carboxylic acid], for which the EC50 lay in the range of 1 to 5 µM.

As for `O=C(Nc1nc2ccc(Br)cc2s1)[C@@H]1C2C=CC(C2)[C@@H]1C(=O)O` (some centres unmarked) [Example 47, 3-[(6-bromo-1,3-benzothiazol-2-yl)carbamoyl]bicyclo[2.2.1]hept-5-ene-2-carboxylic acid], the EC50 was below 1 µM.

Regarding `O=C(Nc1nc2cc(Br)ccc2s1)[C@@H]1C2C=CC(C2)[C@@H]1C(=O)O` (some centres unmarked) [Example 48, 3-[(5-bromo-1,3-benzothiazol-2-yl)carbamoyl]bicyclo[2.2.1]hept-5-ene-2-carboxylic acid], the EC50 lay within 1 to 5 µM.

As to `O=C(Nc1nc2ccc(I)cc2s1)[C@@H]1C2C=CC(C2)[C@@H]1C(=O)O` (some centres unmarked) [Example 49, 3-[(6-iodo-1,3-benzothiazol-2-yl)carbamoyl]bicyclo[2.2.1]hept-5-ene-2-carboxylic acid], the EC50 lay in the range of 1 to 5 µM.

Regarding `O=C(Nc1nc2ccc(-c3ccccc3)cc2s1)[C@@H]1C2C=CC(C2)[C@@H]1C(=O)O` (some centres unmarked) [Example 51], the EC50 was below 1 µM.

For the compound `O=C(Nc1nc2ccc(C3CCCCC3)cc2s1)[C@@H]1C2C=CC(C2)[C@@H]1C(=O)O` (some centres unmarked) [Example 52, 3-[(6-cyclohexyl-1,3-benzothiazol-2-yl)carbamoyl]bicyclo[2.2.1]hept-5-ene-2-carboxylic acid], the EC50 was below 1 µM.

As to `Cc1ccc(-c2ccc3nc(NC(=O)[C@@H]4C5C=CC(C5)[C@@H]4C(=O)O)sc3c2)cc1` (some centres unmarked) [Example 53, 3-[[6-(p-tolyl)-1,3-benzothiazol-2-yl]carbamoyl]bicyclo[2.2.1]hept-5-ene-2-carboxylic acid], the half-maximal effective concentration (EC50) was below 1 µM.

As to `COc1ccc(-c2ccc3nc(NC(=O)[C@@H]4C5C=CC(C5)[C@@H]4C(=O)O)sc3c2)cc1` (some centres unmarked) [Example 54, 3-[[6-(4-methoxyphenyl)-1,3-benzothiazol-2-yl]carbamoyl]bicyclo[2.2.1]hept-5-ene-2-carboxylic acid], the EC50 is below 1 µM.

As for `O=C(Nc1nc2ccc(-c3ccc(Cl)cc3)cc2s1)[C@@H]1C2C=CC(C2)[C@@H]1C(=O)O` (some centres unmarked) [Example 55, 3-[[6-(4-chlorophenyl)-1,3-benzothiazol-2-yl]carbamoyl]bicyclo[2.2.1]hept-5-ene-2-carboxylic acid], the concentration giving a half-maximal response (EC50) was below 1 µM.

With `O=C(Nc1nc2ccc(-c3ccc(Cl)c(Cl)c3)cc2s1)[C@@H]1C2C=CC(C2)[C@@H]1C(=O)O` (some centres unmarked) [Example 56, 3-[[6-(3,4-dichlorophenyl)-1,3-benzothiazol-2-yl]carbamoyl]bicycle [2.2.1]hept-5-ene-2-carboxylic acid], the EC50 is below 1 µM.

Turning to `O=C(Nc1nc2ccc(-c3ccccc3C(F)(F)F)cc2s1)[C@@H]1C2C=CC(C2)[C@@H]1C(=O)O` (some centres unmarked) [Example 57, 3-[6-[[2-(trifluoromethyl)phenyl]-1,3-benzothiazol-2-yl]carbamoyl]bicyclo[2.2.1]hept-5-ene-2-carboxylic acid], the EC50 fell in the range of 1 to 5 µM.

For `O=C1C2C3C=CC(C3)C2C(=O)N1c1nc2ccc(-c3ccccc3C(F)(F)F)cc2s1` [Example 58, (1R,2S,6R,7S)-4-[6-[[2-(trifluoromethyl)phenyl]-1,3-benzothiazol-2-yl]-4-azatricyclo [5.2.1.02,6]dec-8-ene-3,5-dione], the EC50 lay in the range of 5 to 10 µM.

For the compound `O=C(Nc1nc2ccc(-c3cccc(C(F)(F)F)c3)cc2s1)[C@@H]1C2C=CC(C2)[C@@H]1C(=O)O` (some centres unmarked) [Example 59, 3-[[6-[3-(trifluoromethyl)phenyl]-1,3-benzothiazol-2-yl]carbamoyl]bicyclo[2.2.1]hept-5-ene-2-carboxylic acid], the EC50 was below 1 µM.

`O=C(Nc1nc2ccc(-c3ccc(C(F)(F)F)cc3)cc2s1)[C@@H]1C2C=CC(C2)[C@@H]1C(=O)O` (some centres unmarked) [Example 60, 3-[[6-[4-(trifluoromethyl)phenyl]-1,3-benzothiazol-2-yl]carbamoyl]bicyclo[2.2.1]hept-5-ene-2-carboxylic acid]: the concentration giving a half-maximal response (EC50) was below 1 µM.

Consider `O=C1[C@@H]2[C@H](C(=O)N1c1nc3ccc(-c4ccc(C(F)(F)F)cc4)cc3s1)[C@@H]1C=C[C@H]2C1` [Example 61, (1R,2S,6R,7S)-4-[6-[4-(trifluoromethyl)phenyl]-1,3-benzothiazol-2-yl]-4-azatricyclo[5.2.1.02,6]dec-8-ene-3,5-dione], for which the EC50 is below 1 µM.

Consider `O=C(Nc1nc2ccc(-c3ccc(OC(F)(F)F)cc3)cc2s1)[C@@H]1C2C=CC(C2)[C@@H]1C(=O)O` (some centres unmarked) [Example 62, 3-[[6-[4-(trifluoromethoxy)phenyl]-1,3-benzothiazol-2-yl]carbamoyl]bicyclo[2.2.1]hept-5-ene-2-carboxylic acid], for which the EC50 was below 1 µM.

For `O=C(Nc1nc2ccc(-c3ccncc3)cc2s1)[C@@H]1C2C=CC(C2)[C@@H]1C(=O)O` (some centres unmarked) [Example 64, 3-[[6-(4-pyridyl)-1,3-benzothiazol-2-yl]carbamoyl]bicyclo[2.2.1]hept-5-ene-2-carboxylic acid], the EC50 lay within 1 to 5 µM.

As for `O=C1[C@@H]2C3C=CC(C3)[C@@H]2C(=O)N1c1nc2ccc(-c3ccc(F)nc3)cc2s1` [Example 65, (1R,2S,6R,7S)-4-[6-(6-fluoro-3-pyridyl)-1,3-benzothiazol-2-yl]-4-azatricyclo[5.2.1.02.6]dec-8-ene-3,5-dione], the EC50 is 1 to 5 µM.

Regarding `O=C(O)C1C2C=CC(C2)[C@H]1C(=O)Nc1nc2ccc(-c3ccc(C(F)(F)F)nc3)cc2s1` (some centres unmarked) [Example 66, 3-[[6-[6-(trifluoromethyl)-3-pyridyl]-1,3-benzothiazol-2-yl]carbamoyl]bicyclo [2.2.1]hept-5-ene-2-carboxylic acid], the EC50 was below 1 µM.

As for `O=C1[C@@H]2[C@H](C(=O)N1c1nc3ccc(-c4ccc(C(F)(F)F)nc4)cc3s1)[C@@H]1C=C[C@H]2C1` [Example 67, (1R,2S,6R,7S)-4-[6-[6-(trifluoromethyl)-3-pyridyl]-1,3-benzothiazol-2-yl]-4-azatricyclo [5.2.1.02,6]dec-8-ene-3,5-dione], the EC50 lay within 1 to 5 µM.

`O=C1[C@@H]2[C@H](C(=O)N1c1nc3ccc(-c4ccsc4)cc3s1)[C@@H]1C=C[C@H]2C1` [Example 68, (1R,2S,6R,7S)-4-[6-(3-thienyl)-1,3-benzothiazol-2-yl]-4-azatricyclo[5.2.1.02,6]dec-8-ene-3,5-dione]: the EC50 was 1 to 5 µM.

For the compound `O=C(Nc1nc2ccc(-c3ccoc3)cc2s1)[C@@H]1C2C=CC(C2)[C@@H]1C(=O)O` (some centres unmarked) [Example 69, 3-[[6-(3-furyl)-1,3-benzothiazol-2-yl]carbamoyl]bicyclo[2.2.1]hept-5-ene-2-carboxylic acid], the half-maximal effective concentration (EC50) was below 1 µM.

Consider `O=C1[C@@H]2[C@H](C(=O)N1c1nc3ccc(-c4ccoc4)cc3s1)[C@@H]1C=C[C@H]2C1` [Example 70, (1R,2S,6R,7S)-4-[6-(3-furyl)-1,3-benzothiazol-2-yl]-4-azatricyclo[5.2.1.02,6]dec-8-ene-3,5-dione], for which the EC50 fell in the range of 1 to 5 µM.

In the case of `C#CCOc1ccc(-c2ccc3nc(N4C(=O)[C@@H]5[C@H](C4=O)[C@@H]4C=C[C@H]5C4)sc3c2)cc1` [Example 71, (1R,2S,6R,7S)-4-[6-(4-prop-2-ynoxyphenyl)-1,3-benzothiazol-2-yl]-4-azatricyclo[5.2.1.02,6]dec-8-ene-3,5-dione], the concentration for a half-maximal effect (EC50) was below 1 µM.

As to `C#Cc1ccc2nc(N3C(=O)[C@@H]4[C@H](C3=O)[C@@H]3C=C[C@H]4C3)sc2c1` [Example 72, (1R,2S,6R,7S)-4-(6-ethynyl-1,3-benzothiazol-2-yl)-4-azatricyclo[5.2.1.02,6]dec-8-ene-3,5-dione], the EC50 is 1 to 5 µM.

Still in this test, the particulars now being: in combination with pretomanid, unit inferred; read-out: average EC50 H37Rv_gfp.
Take `COc1ccc(-c2ccc3nc(NC(=O)[C@@H]4C5C=CC(C5)[C@@H]4C(=O)O)sc3c2)cc1` (some centres unmarked) [Example 54, 3-[[6-(4-methoxyphenyl)-1,3-benzothiazol-2-yl]carbamoyl]bicyclo[2.2.1]hept-5-ene-2-carboxylic acid]: the EC50 is 0.11 µM.

`O=C(Nc1nc2ccc(-c3ccc(C(F)(F)F)cc3)cc2s1)[C@@H]1C2C=CC(C2)[C@@H]1C(=O)O` (some centres unmarked) [Example 60, 3-[[6-[4-(trifluoromethyl)phenyl]-1,3-benzothiazol-2-yl]carbamoyl]bicyclo[2.2.1]hept-5-ene-2-carboxylic acid]: the EC50 amounted to 0.05 µM.

The same test, now with this note: read-out: EC50 H37Rv_gfp.
As to `N#Cc1ccc2nc(NC(=O)[C@@H]3C4C=CC(C4)[C@@H]3C(=O)O)sc2c1` (some centres unmarked) [Example 40, 3-[(6-cyano-1,3-benzothiazol-2-yl)carbamoyl]bicyclo[2.2.1]hept-5-ene-2-carboxylic acid], the EC50 fell in the range of 1 to 5 µM.

Regarding `O=C(Nc1nc2ccc(O)cc2s1)[C@@H]1C2C=CC(C2)[C@@H]1C(=O)O` (some centres unmarked) [Example 50, 3-[(6-hydroxy-1,3-benzothiazol-2-yl)carbamoyl]bicyclo[2.2.1]hept-5-ene-2-carboxylic acid], the EC50 lay in the range of 10 to 20 µM.

As to `O=C1[C@@H]2[C@H](C(=O)N1c1nc3ccc(-c4ccc(O)cc4)cc3s1)[C@@H]1C=C[C@H]2C1` [Example 63, (1R,2S,6R,7S)-4-[6-(4-hydroxyphenyl)-1,3-benzothiazol-2-yl]-4-azatricyclo[5.2.1.02,6]dec-8-ene-3,5-dione], the EC50 is 5 to 10 µM.
